“Also recorded” adds a separate entry of the source. Counter-ions that a name gives are not always drawn.
Experiments:
[1] = for Radioactivity, Tail Unexposed: unexposed tail less than 1 cm from exposed region
[2] = test system: CD-1 mice; assay: Effect of NMDA antagonists (MK801, ketamine) on topical morphine tolerance (tailflick); format: in vivo
Method: (§1) Systemic drugs were given subcutaneously (s.c.) in the midscapular region of the back. Intracerebroventricularly (i.c.v.) and intrathecal injections were performed under light halothane anesthesia 30 and 15 min before testing, respectively, as previously reported (Kolesnikov et al, 1996). The i.c.v. injections were administered-2 mm caudal and 2 mm lateral to the bregma at a depth of 3 mm, whereas intrathecal injections were made by lumbar puncture. Drugs were given topically on the tail by immersion of the tail in dimethylsulfoxide (DMSO) solutions containing the indicated drugs. The distal portion of the tail (3 cm) was immersed in DMSO solution for 1 min. Tailflick latencies then were determined on the region of the tail immersed in the drug, unless otherwise stated. To ensure a local effect, testing was also done with a more proximal segment of tail not exposed to the drug solution.
(§2) Analgesia was assessed with the tail-flick assay, as previously reported (Kolesnikov et al., 1996). The tail was exposed to a focused beam of light and the latency of exposure determined. […] A maximum cutoff latency of 10 sec was used to minimize tissue damage in analgesic animals. Testing was performed 30 min after systemic administration, 15 min after either i.c.v or i.t. injections or immediately after termination of topical administration into the tail. Antinociception, or analgesia, was defined quantally as a tailflick latency for an individual mouse which was at least twice its baseline latency. Group comparisons were performed using the Fisher exact test. ED50 values were determined using the Bliss program, as previously reported (Pick et al., 1993). To ensure a local action, in all studies we examined a region of the tail which was immersed in DMSO as well as a more proximal segment which was not exposed.

[3] = test system: CD-1 mice; settings: subcutaneous injection in the tail, doses of 10 or 30 μg
[4] = central actions; cited from earlier work
[5] = test system: CD-1 mice; assay: Tailflick assay, topical opioid analgesia (tail immersion in DMSO solution); format: in vivo; settings: for analgesic response in proximal tail not exposed to the opioid solution: mouse, in vivo; for Relative potency: ratio of topical ED50 against morphine; for ED50 (95% CL): topical for 1 min, tailflick assay, CD-1 mice; for analgesic response: morphine solution 7.5 mM
[6] = test system: CD-1 mice; assay: Tolerance to systemic and topical morphine and cross tolerance (tailflick); format: in vivo; settings: for response to topical opioid after chronic systemic morphine (cross tolerance): morphine 5 mg/kg s.c. daily five days, tested day six, 1 min local exposure (morphine 15 mM, M6G 20 mM, DAMGO 2 mM)
Method: as §1, §2

[7] = test system: CD-1 mice; assay: Effects of opioid antagonists on topical mu analgesia (tailflick); format: in vivo; settings: for effect of naloxone on topical opioid analgesic responses: naloxone 1 mg/kg s.c. 20 min prior, M6G 20 mM topical 1 min; for effect of 3-methoxynaltrexone on topical M6G response: 0.25 mg/kg s.c. 20 min prior, M6G 20 mM
Method: as §1, §2

[8] = test system: CD-1 mice; assay: Interactions between topical and systemic or spinal morphine (tailflick); format: in vivo; settings: for ED50: Mus musculus, topical, 0.5 h
Method: Testing was performed 10 min following drug administration. […] Testing was performed 30 min following drug administration.
as §1, §2

[9] = tail immersed 3 min in 100 μCi/ml in DMSO, sampled within 5 min
[10] = morphine 15 mM daily, after three days

## [^125I]DAMGO [^125I-DAMGO]
[1]; [9]
  Radioactivity, Blood: <50 cpm/g
  Radioactivity, Brain: <50 cpm/g
  Radioactivity, Spinal cord: <50 cpm/g
  Radioactivity, Tail Exposed: 45,280 ± 2,637 cpm/g
[1]
  Radioactivity, Tail Unexposed: 157 ± 51 cpm/g

## CNC1(c2ccccc2Cl)CCCCC1=O (stereo not shown) [ketamine, 2-(2-chlorophenyl)-2-(methylamino) cyclohexanone]
[2]; data not shown
  topical morphine tolerance with intrathecal ketamine: ineffective
  topical morphine tolerance with systemic ketamine: prevented the development of tolerance to topical morphine
[2]; ketamine from day 3 through day 6
  reversal of established topical morphine tolerance by topical ketamine 36 mM: completely restored morphine analgesia
[2]; morphine 15 mM once daily
  topical morphine tolerance with topical ketamine 3.6 mM: significantly lessened the loss of morphine analgesic response after three days; also recorded: delayed the appearance of tolerance
  topical morphine tolerance with topical ketamine 36 mM: prevented tolerance up to six days; also recorded: effectively blocked tolerance
[2]; topical 36 mM
  analgesia of ketamine alone: did not produce significant analgesia; also recorded: no appreciable effect

## C[C@]12N[C@H](Cc3ccccc31)c1ccccc12 [MK801, (5R,10S)— (+)-5-methyl-10,11-dihydro-5H-dibenzo[a,d]cyclohapten-5,10-immine hydrogen maleate]
[2]; MK801 1 μg i.t., morphine 15 mM daily
  topical morphine response with intrathecal MK801: lost and ineffective
[2]; MK801 0.1 mg/kg s.c., morphine 15 mM daily
  topical morphine response with systemic MK801 (tolerance prevention): remained essentially unchanged for five days
[2]; MK801 0.3 or 3 mM from fourth day
  reversal of established topical morphine tolerance by topical MK801: reversed the previously established tolerance
[2]; morphine 15 mM 1 min daily
  topical morphine response with topical MK801 3 mM (tolerance prevention): remained essentially unchanged for five days; also recorded: prevented the loss of responsiveness
[2]; [10]
  topical morphine response with topical MK801 0.15 mM: intermediate response
  topical morphine response with topical MK801 0.3 mM: prevented the loss of responsiveness; also recorded: effectively blocking tolerance

## CN1CC[C@]23c4c5ccc(O)c4O[C@H]2[C@@H](O[C@@H]2O[C@H](C(=O)O)[C@@H](O)[C@H](O)[C@H]2O)C=C[C@H]3[C@H]1C5 [M6G, morphine-6β-glucuronide]
[3]
  ceiling effect of analgesia: 30%
[4]
  central activity relative to morphine: approximately 100 fold
[5]
  analgesic response in proximal tail not exposed to the opioid solution: did not display analgesia
  Relative potency: 0.9
  ED50 (95% CL): 9.3 mM (7-14)
[5]; topical paradigm, tailflick
  topical analgesic response: full analgesic response
[6]
  response to topical opioid after chronic systemic morphine (cross tolerance): no change

## [^125I]Morphine [^125I-Morphine]
[1]; [9]
  Radioactivity, Blood: 69 ± 18 cpm/g
  Radioactivity, Spinal cord: 71 ± 12 cpm/g
  Radioactivity, Tail Exposed: 38,460 ± 3,455 cpm/g
[1]
  Radioactivity, Tail Unexposed: 234 ± 51 cpm/g

## C=CCN1CC[C@]23c4c5ccc(O)c4O[C@H]2C(=O)CC[C@@]3(O)[C@H]1C5 [naloxone]
[7]; morphine 15 mM, DAMGO 2 mM
  effect of naloxone on topical opioid analgesic responses: easily reversed; also recorded: readily reversed
[7]; morphine 15 mM, DAMGO 2 mM, listed as Naloxone
  effect of naloxone on topical opioid analgesic responses: significantly reduced the responses for all agonists

## C[C@@H](NC(=O)[C@@H](N)Cc1ccc(O)cc1)C(=O)NCC(=O)N(C)[C@@H](Cc1ccccc1)C(=O)NCCO [DAMGO, [D-Ala^2,MePhe^4,Gly(ol)^5]enkephalin]
[5]
  analgesic response in proximal tail not exposed to the opioid solution: no analgesic response
  Relative potency: 5
  ED50 (95% CL): 1.6 mM (1-2.5)
[5]; topical, FIG. 1a
  duration of action: lasting almost an hour
[5]; topical, fixed exposure time
  potency relative to morphine: over 5 fold
[6]
  response to topical opioid after chronic systemic morphine (cross tolerance): significantly decreased

## COc1ccc2c3c1O[C@H]1C(=O)CC[C@@]4(O)[C@@H](C2)N(CC2CC2)CC[C@]314 [3-MeONtx, 3-methoxynaltrexone]
[7]
  effect of 3-methoxynaltrexone on topical M6G response: significantly lowered the response only for M6G
[7]; listed as 3MeONtx
  effect of 3-methoxynaltrexone on topical M6G response: significantly lowered the M6G response
[7]; 0.25 mg/kg s.c., morphine 15 mM, DAMGO 2 mM
  effect of 3-methoxynaltrexone on topical morphine or DAMGO analgesia: inactive

## CN1CC[C@]23c4c5ccc(O)c4O[C@H]2[C@@H](O)C=C[C@H]3[C@H]1C5 [Morphine]
[5]; exposure 30 seconds
  analgesic response: 25%
[5]; exposure 2 min
  analgesic response: 80%
[5]; exposure one minute
  analgesic response: 50%
[5]
  analgesic response in proximal tail not exposed to the opioid solution: no analgesic response
[5]; topical, FIG. 1a
  duration of the response: less than 30 min
[5]; topical, shortest time tested
  onset of analgesia after removal of the tail from the opioid solution: detectable within one minute
[6]; 5 mg/kg s.c. or topical 15 mM 1 min daily
  day 3 response, systemic versus topical group: significantly greater than the topical group
[6]; Mus musculus, topical, read-out: ED50 (95% confidence limits), Systemic, Naive
  ED50: 4.3 mg/kg
[6]; after topical morphine 15 mM daily for two days
  ED50 (95% confidence limits), Topical, Tolerant: 78 mM (49, 123)
[6]
  response to topical opioid after chronic systemic morphine (cross tolerance): significantly decreased
[6]; naive mice, topical morphine
  ED50 (95% confidence limits), Topical, Naive: 8.3 mM (4.1-10.2)
[6]; topical 15 mM, 1 min, daily
  response to daily topical morphine alone after three days: lost and profound tolerance by the third day and complete loss analgesia by the third day
[8]; 100 ng, i.t.
  response to spinal morphine alone: no observable action
[8]; 1 mg/kg, s.c.
  response to systemic morphine alone: 10%
[8]; 30 min
  potentiation of analgesic potency of systemic morphine by topical morphine: ~7 fold
[8]; read-out: ED50 value, Systemic + topical
  ED50: 0.66 mg/kg
[8]; read-out: ED50 value, Systemic alone
  ED50: 4.3 mg/kg
[8]; intrathecal morphine alone, tested 15 min
  ED50 value, Spinal alone: 550 ng (386-822)
[8]; intrathecal morphine with fixed topical morphine 15 mM, tested 15 min
  ED50 value, Spinal + topical: 46 ng (21-84)
[8]; mouse, in vivo
  enhancement of potency of intrathecal morphine by topical morphine: ~12 fold
[8]; topical 15 mM 2 min + 100 ng i.t., 10 min
  response of topical plus spinal morphine versus sum of routes: significantly more active than the sum of the two individual routes alone
[8]; topical 15 mM + 1 mg/kg s.c., 30 min
  response of topical plus systemic morphine versus sum of routes: significantly greater than the sum of the two ones alone
[8]; topical morphine 15 mM, 2 min exposure, 1 min after
  response to topical morphine alone at 1 min: 80%
[8]; topical morphine 15 mM, 10 min after
  response to topical morphine alone at 10 min: 30%
[8]; topical morphine 15 mM, 30 min after
  response to topical morphine alone at 30 min: no observable response; also recorded: No analgesia

From US7700122B1, “Topical compositions comprising an opioid analgesic and an NMDA antagonist” (Memorial Sloan-Kettering Cancer Center, priority 1998, dated 2010)
